Consider two compounds from ChEMBL document CHEMBL2401642, “Sphingosine kinase 2 inhibitor SG-12 induces apoptosis via phosphorylation by sphingosine kinase 2” (2013).

Assay [1] deals with T1, Sphingosine kinase 2 (Mus musculus) (UniProt Q9JIA7).
T1 sequence (whole entry): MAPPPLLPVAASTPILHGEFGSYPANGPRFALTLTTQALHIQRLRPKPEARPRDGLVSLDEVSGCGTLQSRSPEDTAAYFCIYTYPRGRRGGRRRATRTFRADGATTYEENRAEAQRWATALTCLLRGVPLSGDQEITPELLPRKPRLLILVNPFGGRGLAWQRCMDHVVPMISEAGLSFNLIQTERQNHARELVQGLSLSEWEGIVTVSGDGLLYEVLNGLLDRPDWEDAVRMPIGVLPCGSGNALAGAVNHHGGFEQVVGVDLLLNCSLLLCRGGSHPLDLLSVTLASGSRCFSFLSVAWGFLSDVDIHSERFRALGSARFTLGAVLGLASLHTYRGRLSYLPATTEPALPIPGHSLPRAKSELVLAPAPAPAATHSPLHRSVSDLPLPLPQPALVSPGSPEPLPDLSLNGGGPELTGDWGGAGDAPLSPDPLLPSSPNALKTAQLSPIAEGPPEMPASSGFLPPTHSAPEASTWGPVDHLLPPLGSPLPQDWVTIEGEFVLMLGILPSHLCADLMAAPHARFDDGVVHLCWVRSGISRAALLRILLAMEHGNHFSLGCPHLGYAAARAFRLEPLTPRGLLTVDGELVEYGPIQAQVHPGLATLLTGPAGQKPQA
The assay can be described thus: Activity at mouse SPHK2 transfected in mouse A20/2J cell lysates assessed as compound phosphorylation at 10 uM after 30 mins by autoradiography in presence of [gamma-32P]ATP. It counts as cell-free.

The target in assay [2] is T1, Sphingosine kinase 2 (Mus musculus). The assay can be described thus: Inhibition of mouse SPHK2 in mouse A20/2J cells using [3-3H]sphingosine as substrate assessed as [3H]S1P formation at 2 to 4 uM incubated for 5 mins prior to substrate addition measured after 5 mins. It counts as cell-based.
The target in assay [3] is Sphingosine kinase 1 (Mus musculus) (UniProt Q8CI15). The assay is described as follows: Inhibition of mouse SPHK1 in mouse A20/2J cells using [3-3H]sphingosine as substrate assessed as [3H]S1P formation at 2 to 4 uM incubated for 5 mins prior to substrate addition measured after 5 mins. It counts as cell-based.
Chain of Sphingosine kinase 1 (Mus musculus) (Q8CI15 whole entry): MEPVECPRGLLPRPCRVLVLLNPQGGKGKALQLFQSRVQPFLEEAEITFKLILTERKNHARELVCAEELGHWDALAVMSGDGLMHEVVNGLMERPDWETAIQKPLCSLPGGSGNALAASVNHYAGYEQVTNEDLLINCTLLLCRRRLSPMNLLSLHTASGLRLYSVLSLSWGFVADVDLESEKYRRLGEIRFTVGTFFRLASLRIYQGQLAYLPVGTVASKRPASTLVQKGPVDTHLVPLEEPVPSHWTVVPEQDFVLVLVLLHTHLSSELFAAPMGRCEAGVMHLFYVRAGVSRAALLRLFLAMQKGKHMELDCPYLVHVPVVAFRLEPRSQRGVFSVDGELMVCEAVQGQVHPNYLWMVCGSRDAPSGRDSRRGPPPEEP
The target is the same in assay [4]. The assay can be described thus: Activity at mouse SPHK1 transfected in mouse A20/2J cell lysates assessed as compound phosphorylation at 10 uM after 30 mins by autoradiography in presence of [gamma-32P]ATP. It counts as cell-free.
Assay [5] relates to A20/2J. The assay is described as follows: Induction of apoptosis in mouse SPHK2-transfected mouse A20/2J cells assessed as increase in LDH release at 10 uM after 6 hrs. It counts as functional, cell-based. (In general: LDH leaks from cells whose membrane has failed.)
Assay [6] concerns A20/2J. The assay is described as follows: Induction of apoptosis in mouse A20/2J cells assessed as increase in LDH release at 10 uM up to 10 hrs. It counts as functional, cell-based.
The nature of assay [7]: Induction of apoptosis in mouse N-terminal FLAG-tagged SPHK1-transfected mouse A20/2J cells at 10 uM after 9 hrs by LDH release assay. It counts as functional.
Assay [8] in a line: Induction of apoptosis in mouse A20/2J cells assessed as late apoptotic cells at 8 uM after 6 hrs by FITC-annexin V/propidium iodide staining-based flow cytometric analysis (reference value: 1.39%). It counts as functional. (In general: Flow cytometry measures light scatter and fluorescence of single cells or particles in a stream.)
Assay [9] in a line: Induction of apoptosis in mouse SPHK1-transfected mouse A20/2J cells assessed as activation of caspase 3 at 10 uM after 3 hrs by flow cytometric analysis. It counts as functional.
Assay [10] can be described thus: Induction of apoptosis in mouse SPHK2-transfected mouse A20/2J cells assessed as viable cells at 8 uM after 6 hrs by FITC-annexin V/propidium iodide staining-based flow cytometric analysis (reference value: 96.1%). It counts as functional. Particulars: read-out: Activity.
A short description of assay [11]: Induction of apoptosis in mouse SPHK2 R293E/R294E mutant-transfected mouse A20/2J cells at 10 uM after 9 hrs by LDH release assay. It counts as functional.
In assay [12] the test system is A20/2J. The assay is described as follows: Induction of apoptosis in mouse SPHK2-transfected mouse A20/2J cells assessed as increase in LDH release at 10 uM. It counts as functional, cell-based. To be noted: TDE = time-dependent effect.
In assay [13] the test system is A20/2J. The assay is described as follows: Induction of apoptosis in mouse SPHK2-transfected mouse A20/2J cells assessed as chromatin condensation at 8 uM after 18 hrs by transmission electron microscopy. It counts as functional, cell-based.
In assay [14] the test system is A20/2J. The assay can be described thus: Induction of apoptosis in mouse SPHK2-transfected mouse A20/2J cells assessed as increase in LDH release after 8 hrs. It counts as functional, cell-based.
Assay [15] has as its system A20/2J. The assay is described as follows: Induction of apoptosis in mouse SPHK2-transfected mouse A20/2J cells at 8 uM after 6 hrs by flow cytometric analysis in presence of pan-caspase inhibitor z-VAD-fmk. It counts as functional, cell-based.
Assay [16] deals with A20/2J. The assay is described as follows: Induction of apoptosis in mouse SPHK1-transfected mouse A20/2J cells assessed as increase in LDH release at 50 uM. It counts as functional, cell-based.
Assay [17] is described as follows: Induction of apoptosis in mouse SPHK2-transfected mouse A20/2J cells assessed as late apoptotic cells at 8 uM after 6 hrs by FITC-annexin V/propidium iodide staining-based flow cytometric analysis (reference value: 1.12%). It counts as functional.
Assay [18] in a line: Induction of apoptosis in mouse A20/2J cells assessed as activation of caspase 3 at 10 uM after 3 hrs by flow cytometric analysis. It counts as functional.
The nature of assay [19]: Induction of apoptosis in mouse A20/2J cells assessed as viable cells at 8 uM after 6 hrs by FITC-annexin V/propidium iodide staining-based flow cytometric analysis (reference value: 95.9%). It counts as functional. To be noted: read-out: Activity.
Assay [20] is described as follows: Induction of apoptosis in mouse SPHK2 G213D mutant-transfected mouse A20/2J cells at 10 uM after 9 hrs by LDH release assay. It counts as functional.
Assay [21] can be described thus: Induction of apoptosis in mouse N-terminal FLAG-tagged SPHK2-transfected mouse A20/2J cells at 10 uM after 9 hrs by LDH release assay. It counts as functional.
Assay [22] has as its system A20/2J. The assay can be described thus: Induction of apoptosis in mouse SPHK2-transfected mouse A20/2J cells assessed as increase in LDH release at 50 uM. It counts as functional, cell-based.
Assay [23] is described as follows: Induction of apoptosis in mouse A20/2J cells assessed as early apoptotic cells at 8 uM after 6 hrs by FITC-annexin V/propidium iodide staining-based flow cytometric analysis (reference value: 2.58%). It counts as functional.
Assay [24] deals with T1, Sphingosine kinase 2 (Mus musculus). The assay can be described thus: Inhibition of mouse SPHK2 in mouse A20/2J cells using [3-3H]sphingosine as substrate assessed as [3H]S1P formation at 8 uM incubated for 5 mins prior to substrate addition measured after 5 mins. It counts as cell-based.
The test system of assay [25] is A20/2J. The assay can be described thus: Induction of apoptosis in mouse SPHK1-transfected mouse A20/2J cells assessed as increase in LDH release at 10 uM up to 10 hrs. It counts as functional, cell-based.
Assay [26] in a line: Induction of apoptosis in mouse SPHK2-transfected mouse A20/2J cells assessed as activation of caspase 3 at 10 uM after 3 hrs by flow cytometric analysis. It counts as functional.
Assay [27] addresses Sphingosine kinase 1 (Mus musculus) (UniProt Q8CI15). The assay can be described thus: Inhibition of mouse SPHK1 in mouse A20/2J cells using [3-3H]sphingosine as substrate assessed as [3H]S1P formation at 8 uM incubated for 5 mins prior to substrate addition measured after 5 mins. It counts as cell-based.
Assay [28] can be described thus: Induction of apoptosis in mouse SPHK2 L219A mutant-transfected mouse A20/2J cells at 10 uM after 9 hrs by LDH release assay. It counts as functional.
A short description of assay [29]: Induction of apoptosis in mouse SPHK2-transfected mouse A20/2J cells assessed as early apoptotic cells at 8 uM after 6 hrs by FITC-annexin V/propidium iodide staining-based flow cytometric analysis (reference value: 2.48%). It counts as functional.

Activity calls are given as the source filed them. The calls are words filed in the database; no cut-off is given here.

As to `CCCCCCCCc1ccc(C[C@H](O)[C@@H](N)CO)cc1`, the outcome in assay [1] and in assay [4] was Active. In addition, the inhibition result in assay [2] and in assay [3] was “inactive” throughout.

For the compound `CCCCCCCCc1ccc(C[C@@H](O)[C@@H](N)CO)cc1`, the result in assay [5], in assay [6], in [1], in assay [13], in [15] and in [16] was Active. Also, the outcome in assay [4], in assay [22] and in assay [25] was Active. For the same compound, the Activity in [7] was 17.8%; in [8] it was 1.62%; in assay [9], 6.4%; in assay [11] it was 13.2%; in assay [12] it was “tde”; in assay [14] it was “Dose-dependent effect”. Besides, the Activity in [17] is given as 19%; in [18] it was 9.6%; in assay [20], 9.8%; in assay [21], 18.4%; in assay [23], 5.06%; in assay [26], 31.8%. Also, the values for the Activity in assay [28] and in assay [29] were 20.3% and 7.86%, respectively. For the same compound, the viability at 8 µM was 70.1% in [10] and 93.2% in assay [19]. Also, the inhibition entry in assay [2] and in assay [3] was “Active” in each case. For the same compound, the inhibition (usually the percentage by which the read-out fell short of the control) in assay [24] came to 46%; in assay [27] it was 8%.
